The text below walks through data of patent US20210179577A1, “AROMATIC SULFONAMIDE DERIVATIVES FOR THE TREATMENT OF ISCHEMIC STROKE” (Bayer Aktiengesellschaft, priority 2017, published 2021).

One test deals with T1, rat P2X4 (Rattus norvegicus, UniProt P51577).
T1 construct: expressed in transfected cells; host or cells: 1321N1 astrocytoma cells
T1 sequence (P51577 1-388): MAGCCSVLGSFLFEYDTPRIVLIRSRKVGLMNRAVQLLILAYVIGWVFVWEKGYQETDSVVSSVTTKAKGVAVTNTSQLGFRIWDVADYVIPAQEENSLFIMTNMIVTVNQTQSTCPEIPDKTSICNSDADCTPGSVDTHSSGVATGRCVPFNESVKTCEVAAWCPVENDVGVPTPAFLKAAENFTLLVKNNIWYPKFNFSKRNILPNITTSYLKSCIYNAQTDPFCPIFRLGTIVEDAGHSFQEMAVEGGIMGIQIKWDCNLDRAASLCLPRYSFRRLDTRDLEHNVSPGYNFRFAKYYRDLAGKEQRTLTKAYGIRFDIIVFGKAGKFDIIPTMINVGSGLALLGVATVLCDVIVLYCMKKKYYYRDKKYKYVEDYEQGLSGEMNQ
As to the kind of experiment: FLIPR assay, rat P2X4 1321N1 Astrocytoma Cells. To be noted: agonist Mg-ATP at EC80. It counts as cell-based. Here is the method: 1321N1 Astrocytoma cells stably expressing human P2X4 or rat P2X4 or mouse P2X4 were plated in Collagen ITO-treated microplate at a seeding density of 10000 cells/well and incubated overnight. P2X4 function was assessed by measuring intracellular calcium changes using the calcium-chelating dye Fluo8-AM (Molecular Devices) on a fluorescent imaging plate reader (FLEX/FLIPR station; Molecular Devices). On the day of the assay, the medium was removed and the cells were incubated for 30 min at […] and 5% CO2 in 30 μL of dye buffer (Hank's balanced salt solution, 10 mM HEPES, 1.8 mM CaCl2, 1 mM MgCl2, 2 mM probenecid, 5 mM D-glucose monohydrate, 5 μM Fluo8-AM, pH=7.4). Compounds diluted in probenecid buffer (Hank's balanced salt solution, 10 mM HEPES, 1.8 mM CaCl2, 1 mM MgCl2, 2 mM probenecid, 5 mM D-glucose monohydrate, pH=7.4) were added in a volume of 10 μL and allowed to incubate for 30 min at room temperature. The final assay DMSO concentration was 0.25%. The agonist, Mg-ATP (Sigma), was added in a volume of 10 μL at a concentration representing the EC80 value. EC80 was determined to be 0.5 μM for human and mouse P2X4 and 5 μM for rat P2X4. The fluorescence was measured for an interval of 120 sec at 2 sec intervals. The excitation and emission wavelengths used to monitor fluorescence were 470-495 nm and 515-575 nm, respectively. The data was analyzed based on the increase in peak relative fluorescence units (RFU) compared to the basal fluorescence and the data was normalized to the agonist control. The compounds were tested in triplicates per plate and mean values were plotted in Excel XLFit to determine IC50 values, percentage of maximal inhibition and the Hill coefficients.

The target in a further test is T2, hP2X4 (Homo sapiens, UniProt Q99571).
T2 construct: expressed in transfected cells; host or cells: HEK-293 mito-Photina, clone 2a/4
T2 sequence (Q99571 1-388): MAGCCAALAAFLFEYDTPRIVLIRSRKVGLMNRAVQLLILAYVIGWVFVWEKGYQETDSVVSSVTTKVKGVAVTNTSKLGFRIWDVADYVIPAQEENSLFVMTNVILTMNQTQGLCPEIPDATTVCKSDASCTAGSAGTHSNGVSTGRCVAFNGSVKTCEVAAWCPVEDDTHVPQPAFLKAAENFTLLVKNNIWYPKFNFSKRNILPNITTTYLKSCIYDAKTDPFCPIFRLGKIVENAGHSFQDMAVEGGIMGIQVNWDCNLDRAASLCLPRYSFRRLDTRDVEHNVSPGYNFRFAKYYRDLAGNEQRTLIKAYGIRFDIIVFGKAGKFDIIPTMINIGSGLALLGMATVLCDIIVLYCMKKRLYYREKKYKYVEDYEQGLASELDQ
As to the kind of experiment: Human P2X4 HEK Cell Electrophysiology Assay B (QPatch). It counts as cell-based. To be noted: ATP 5 microM, -90 mV; read-out: Human P2X4 HEK Cells (QPatch Electrophysiology) avg IC50. On the procedure: Cell culture conditions: HEK-293 mito-Photina pcDNA3(neo-)/pPURO N/pcDNA3_P2RX4, clone 2a/4 (HEK-293 mito-Photina/hP2RX4) cells were cultured in EMEM Minimum Essential Medium Eagle with Earl's salts Balanced Salt Solution (BioWhittaker cat. BE12-125F) supplemented with 5 mL of 200 mM Ultraglutaminel (BioWhittaker cat. BE17-605E/U1), 5 mL of 100× Penicillin/Streptomycin (BioWhittaker cat. DE17-602E; final concentration 1%), 4 mL of 50 mg/mL G418 (Sigma cat. G8168-100 mL; final concentration 400 μg/mL), 10 μL of 10 mg/mL Puromicin (InvivoGen cat. ant-pr-1; final concentration 0.2 μg/mL) and 50 mL of Fetal Bovine Serum (Sigma cat. F7524; final concentration 10%).
Experimentalprotocol: HEK-293 cell lines are seeded 72 or 96 hours before experiment, at a concentration of 5 or 2.5 million cells, respectively onto a T225 flask. Just before the experiments cells are washed twice with D-PBS w/o Ca2+/Mg2+(Euroclone cat. ECB4004L) and detached from the flask with trypsin-EDTA (Sigma, cat. T4174 diluted 1/10). Cells are then re-suspended in the suspension solution: 25 mL EX-CELL ACF CHO medium (Sigma, cat. C5467); 0.625 mL HEPES (BioWhittaker, cat. BE17-737E); 0.25 mL of 100× Penicillin/Streptomycin (BioWhittaker, cat. DE17-602E), 0.1 mL of Soybean Trypsin Inhibitor 10 mg/mL (Sigma, cat. T6522) and placed on the QPatch 16X.
Compound preparation and storage: Compound stock solutions (10 mM; 100% DMSO; stored at −20° C.) were used. Fresh solutions from stock (1 or 3 mM, 100% DMSO) were prepared just before the experiments (0.1% final DMSO concentration).
Patch clamp analysis with QPatch16X (FIG. 1): Standard whole-cell voltage clamp experiments are performed at room temperature using the multihole technology.
For the voltage clamp experiments on hP2X4, data are sampled at 2 KHz. After establishment of the seal and the passage in the whole cell configuration, the cells are held at −90 mV and the hP2X4 current is evoked by the agonist in the absence (vehicle period, i.e. 0.1% DMSO) or in the presence of the compound under investigation at increasing concentrations; see the application protocol in FIG. 1.
Output: the maximum inward current induced by the agonist (ATP 5 microM).
The intracellular solution contained (mM) 135 CsF, 10 NaCl, 1 EGTA, 10 HEPES (pH 7.2 with CsOH) whereas the extracellular solution (mM) 145 NaCl, 4 KCl, 0.5 MgCl2, 1 CaCl2, […], 10 Glucose (pH 7.4 with NaOH).
For data collection, the Sophion software was used and the analysis was performed off-line using Excel and GraphPad Prism.
When possible, i.e. when the % of inhibition with the highest concentration tested was more than 50%, the dose-response curves data were fitted with the following equation:
[X is log of concentration; Y is normalized response (100% down to 0%, decreasing as X increases); Log IC50 same log units as X; HillSlope is unitless slope factor or hill slope]

As usually defined, the IC50 is the concentration needed to halve the response being measured. `NS(=O)(=O)c1cc(NC(=O)Cc2ccccc2Cl)ccc1-n1cc(C(F)(F)F)cn1` [Example 19, 2-(2-Chlorophenyl)-N-{3-sulfamoyl-4-[4-(trifluoromethyl)-1H-pyrazol-1-yl]phenyl}acetamide]: on rat P2X4, the 50% inhibitory concentration (IC50) was 0.071 µM and the “Rat P2X4 1321N1 Astrocytoma Cells (FLIPR Assay) avg Efficacy” value (“Rat P2X4 1321N1 Astrocytoma Cells” below) came out at 57%. On hP2X4, the IC50 is 0.278 µM.

On to `NS(=O)(=O)c1cc(NC(=O)Cc2ccccc2Cl)ccc1-n1cc(F)cn1` [Example 26, 2-(2-Chlorophenyl)-N-[4-(4-fluoro-1H-pyrazol-1-yl)-3-sulfamoylphenyl]acetamide], for which the IC50 at hP2X4 was determined as 0.222 µM.

In the case of `N#Cc1cnn(-c2ccc(NC(=O)Cc3ccccc3Cl)cc2S(N)(=O)=O)c1` [Example 39, 2-(2-Chlorophenyl)-N-[4-(4-cyano-1H-pyrazol-1-yl)-3-sulfamoylphenyl]acetamide], on rat P2X4, the IC50 stood at 0.308 µM and the “Rat P2X4 1321N1 Astrocytoma Cells” value came out at 87%.

Consider `NS(=O)(=O)c1cc(NC(=O)Cc2ccccc2Cl)ccc1-c1cnn(C(F)F)c1` [Example 326, 2-(2-Chlorophenyl)-N-{4-[1-(difluoromethyl)-1H-pyrazol-4-yl]-3-sulfamoylphenyl}acetamide], for which, at rat P2X4, the 50% inhibitory concentration (IC50) was 0.325 µM and the “Rat P2X4 1321N1 Astrocytoma Cells” value came out at 99%. Besides, the IC50 on hP2X4 stood at 0.051 µM.

For the compound `NS(=O)(=O)c1cc(NC(=O)Cc2ccccc2Cl)cnc1-n1cc(C(F)(F)F)cn1` [Example 380, 2-(2-Chlorophenyl)-N-{5-sulfamoyl-6-[4-(trifluoromethyl)-1H-pyrazol-1-yl]pyridin-3-yl}acetamide], at hP2X4, the IC50 was determined as 0.157 µM.
